The conditions of series [1]: cited from earlier work.
A short description of series [2]: Degradation of Drotaverine HCl under stress conditions. To be noted: alkaline medium, higher oxidative stress conditions, presence of light. The class given is physicochemical. An excerpt:
In some embodiments, the disclosed formulations employ very few excipients, all of which are completely safe for pediatric patients, economical, and readily available.

The nature of series [3]: Solubilizing Drotaverine HCl in dispersion media of sorbitol liquid, glycerin and water, storage. In kind it is physicochemical. The following applies: glycerin, water 1:1:1 to 3:2:1, no stabilizing agent. An excerpt: The inventors of the present disclosure tried solubilizing Drotaverine HCl in a ratio of dispersion media containing sorbitol liquid, glycerin, and water ranging from 1:1:1 to 3:2:1, respectively. […] To obtain a physically and chemically stable product with good shelf life, the present inventors resolved this precipitation of Drotaverine in the proposed dispersion media. In order to avoid the precipitation of Drotaverine, the present inventors added a stabilizing agent to the dispersion media.

For series [4] the following is noted: cited from earlier work. The source holds these as a separate data set.

For `CCOc1ccc(C=C2NCCc3cc(OCC)c(OCC)cc32)cc1OCC` [Drotaverine, 1-[(3,4-diethoxyphenyl)methylene]-6,7-diethoxy-1,2,3,4-tetrahydroisoquinoline], in series [1] (after oral administration of 80 mg strength IR tablets), the onset of action is at most 12 min. In series [1] (humans, Drotaverine IR tablets 80 mg), the “renal clearance as share of the total plasma clearance” value is reported as 0.31+/−0.13%. The “Absolute bioavailability (range)” value in series [1] (humans, oral, subject dependent) is 24.5-91%. In addition, the “Absolute bioavailability, mean (mean+/-SD)” value in series [1] (humans, oral) is recorded as 58.2+/−18.2%. Moreover, the degradation result in series [2] was “degrades extensively”. The precipitation on storage entry in series [3] is recorded as “re-precipitated on storage”. For the same compound, in series [4], the “oral LD50” value was over 1000 mg/Kg body weight.

The values above are taken from US20240091217A1, “STABLE PHARMACEUTICAL ORAL LIQUID FORMULATION OF AN ANTISPASMODIC AGENT” (priority 2022, published 2024).
